Measured values reported in US10168342B2, “Lipid probes and uses thereof” (THE SCRIPPS RESEARCH INSTITUTE, priority 2015, dated 2019).
Where two headings read alike, the source gives them in different places.

How the values were obtained:
[1] = molecular target: T1, AEA-DA lipid probe targets in Neuro2a cells (Mus musculus, UniProt D3YZZ5)
T1 sequence (D3YZZ5 35-224): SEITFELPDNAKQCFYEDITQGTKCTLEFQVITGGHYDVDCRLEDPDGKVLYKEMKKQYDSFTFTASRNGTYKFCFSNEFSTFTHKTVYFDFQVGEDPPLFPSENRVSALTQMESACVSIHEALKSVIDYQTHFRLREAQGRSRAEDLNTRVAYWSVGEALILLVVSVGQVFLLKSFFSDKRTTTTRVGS

[2] = molecular target: T2, AEA-DA lipid probe targets in Neuro2a cells (Mus musculus, UniProt O08547)
T2 sequence (O08547 1-215): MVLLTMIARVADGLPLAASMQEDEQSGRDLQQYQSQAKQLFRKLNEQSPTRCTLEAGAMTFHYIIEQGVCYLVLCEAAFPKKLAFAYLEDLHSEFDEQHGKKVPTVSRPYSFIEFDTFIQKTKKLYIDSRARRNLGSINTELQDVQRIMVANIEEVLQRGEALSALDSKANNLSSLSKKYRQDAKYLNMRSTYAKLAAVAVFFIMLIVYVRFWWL

[3] = molecular target: T3, AEA-DA lipid probe targets in Neuro2a cells (Mus musculus, UniProt P17439)
T3 sequence (P17439 20-515): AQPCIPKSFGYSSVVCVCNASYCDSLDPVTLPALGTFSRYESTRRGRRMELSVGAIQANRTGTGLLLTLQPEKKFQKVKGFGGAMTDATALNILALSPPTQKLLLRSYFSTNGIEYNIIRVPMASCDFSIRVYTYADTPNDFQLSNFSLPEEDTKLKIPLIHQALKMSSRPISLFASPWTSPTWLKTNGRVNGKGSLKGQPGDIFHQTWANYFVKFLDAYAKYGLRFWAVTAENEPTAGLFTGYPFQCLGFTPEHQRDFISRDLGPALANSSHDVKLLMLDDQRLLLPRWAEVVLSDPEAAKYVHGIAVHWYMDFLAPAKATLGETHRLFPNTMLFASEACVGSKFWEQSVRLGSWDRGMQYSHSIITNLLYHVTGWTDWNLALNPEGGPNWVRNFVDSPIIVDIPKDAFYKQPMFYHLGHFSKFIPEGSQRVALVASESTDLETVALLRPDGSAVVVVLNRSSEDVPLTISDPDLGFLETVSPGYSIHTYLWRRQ

[4] = molecular target: T4, AEA-DA lipid probe targets in Neuro2a cells (Mus musculus, UniProt P54071)
T4 sequence (P54071 40-452): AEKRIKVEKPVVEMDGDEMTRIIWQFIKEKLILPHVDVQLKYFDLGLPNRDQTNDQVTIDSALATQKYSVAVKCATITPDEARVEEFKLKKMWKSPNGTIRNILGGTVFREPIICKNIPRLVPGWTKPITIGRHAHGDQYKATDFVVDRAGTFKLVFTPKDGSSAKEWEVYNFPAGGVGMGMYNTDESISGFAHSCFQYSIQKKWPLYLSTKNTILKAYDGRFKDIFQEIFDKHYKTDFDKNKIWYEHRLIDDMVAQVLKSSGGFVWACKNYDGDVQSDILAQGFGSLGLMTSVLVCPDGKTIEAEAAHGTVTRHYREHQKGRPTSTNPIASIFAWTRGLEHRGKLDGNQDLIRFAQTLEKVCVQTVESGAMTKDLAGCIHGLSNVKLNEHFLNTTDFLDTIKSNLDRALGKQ

[5] = molecular target: T5, AEA-DA lipid probe targets in Neuro2a cells (Mus musculus, UniProt Q8BTV1)
T5 sequence (Q8BTV1 42-347): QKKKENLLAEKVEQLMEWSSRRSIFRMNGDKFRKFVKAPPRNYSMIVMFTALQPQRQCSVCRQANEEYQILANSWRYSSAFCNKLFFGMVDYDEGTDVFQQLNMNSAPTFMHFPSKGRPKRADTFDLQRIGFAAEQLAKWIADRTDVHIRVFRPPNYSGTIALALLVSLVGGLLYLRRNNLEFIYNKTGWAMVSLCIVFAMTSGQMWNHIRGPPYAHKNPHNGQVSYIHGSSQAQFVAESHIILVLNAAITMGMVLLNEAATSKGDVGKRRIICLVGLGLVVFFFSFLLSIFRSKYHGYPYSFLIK

[6] = molecular target: T6, AEA-DA lipid probe targets in Neuro2a cells (Mus musculus, UniProt Q8C0L0)
T6 sequence (Q8C0L0 21-335): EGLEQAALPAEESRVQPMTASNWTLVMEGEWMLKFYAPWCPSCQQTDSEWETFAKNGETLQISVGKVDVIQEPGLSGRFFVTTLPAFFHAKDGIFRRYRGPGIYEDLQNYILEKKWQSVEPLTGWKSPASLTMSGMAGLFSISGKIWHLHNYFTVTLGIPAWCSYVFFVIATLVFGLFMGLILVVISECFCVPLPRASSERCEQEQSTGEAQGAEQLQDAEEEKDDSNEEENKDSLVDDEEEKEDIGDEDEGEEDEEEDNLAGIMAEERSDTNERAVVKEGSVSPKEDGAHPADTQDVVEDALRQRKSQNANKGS

[7] = molecular target: T7, AEA-DA lipid probe targets in Neuro2a cells (Mus musculus, UniProt Q91WS0)
T7 sequence (Q91WS0 1-108): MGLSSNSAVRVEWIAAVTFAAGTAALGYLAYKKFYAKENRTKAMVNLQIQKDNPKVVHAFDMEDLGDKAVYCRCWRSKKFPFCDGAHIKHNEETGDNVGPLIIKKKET

[8] = molecular target: T8, AEA-DA lipid probe targets in Neuro2a cells (Mus musculus, UniProt Q8BKE6)
T8 sequence (Q8BKE6 1-462): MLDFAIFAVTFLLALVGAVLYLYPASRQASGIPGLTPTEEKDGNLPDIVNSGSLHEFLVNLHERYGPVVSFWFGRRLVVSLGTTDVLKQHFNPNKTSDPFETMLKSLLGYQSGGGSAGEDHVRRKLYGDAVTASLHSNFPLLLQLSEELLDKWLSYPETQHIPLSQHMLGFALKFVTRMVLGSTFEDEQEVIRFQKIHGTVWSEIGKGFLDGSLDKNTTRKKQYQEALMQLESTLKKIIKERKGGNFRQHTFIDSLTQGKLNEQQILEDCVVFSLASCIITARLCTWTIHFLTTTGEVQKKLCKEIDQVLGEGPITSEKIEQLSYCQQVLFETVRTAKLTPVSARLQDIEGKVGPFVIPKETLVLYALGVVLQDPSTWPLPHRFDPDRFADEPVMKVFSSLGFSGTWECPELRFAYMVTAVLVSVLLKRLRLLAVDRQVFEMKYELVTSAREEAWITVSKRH

`CCCCC/C=C\C/C=C\C/C=C\C/C=C\CCCC(=O)NCCO` [AEA, anandamide, reference compound] was tested, and the “SILAC ratio, Tmed7” value ([1]; competitor 200 μM) was 1.5, the “SILAC ratio, Sec22b” value ([2]; competitor 200 μM) was 1.4 and the “SILAC ratio Gba” value ([3]; competitor 200 μM) was 1.5. The “SILAC ratio Idh2” value ([4]; competitor 200 μM) was 1.2, the “SILAC ratio, Tusc3” value ([5]; competitor 200 μM) was 1.7 and the “SILAC ratio Tmx4” value ([6]; competitor 200 μM) was 1.9. For the same compound, the “SILAC ratio Cisd1” value ([7]; competitor 200 μM) was 1.6.
`O=C(/C=C/c1cccnc1)NCCCCC1CCN(C(=O)c2ccccc2)CC1` [FK-866, reference compound] was tested, and the “SILAC ratio, Tmed7” value ([1]; competitor 25 μM) was 1.1, the “SILAC ratio, Sec22b” value ([2]; competitor 25 μM) was 1.2 and the “SILAC ratio Gba” value ([3]; competitor 25 μM) was 1.0. For the same compound, the “SILAC ratio Idh2” value ([4]; competitor 25 μM) was 1.2, the “SILAC ratio, Cyp20a1” value ([8]; competitor 25 μM) was 1.1 and the “SILAC ratio, Tusc3” value ([5]; competitor 25 μM) was 1.3. The “SILAC ratio Tmx4” value ([6]; competitor 25 μM) was 1.0 and the “SILAC ratio Cisd1” value ([7]; competitor 25 μM) was 1.1.
`CN1CCN(C(=O)c2c(-c3ccccc3)c3cc([N+](=O)[O-])ccc3n2C)CC1` [KML110, (1-Methyl-5-nitro-3-phenyl-1H-indol-2-yl)(4-methylpiperazin-1-yl)methanone] was tested, and the “SILAC ratio, Tmed7” value ([1]; competitor 25 μM) was 1.6, the “SILAC ratio, Sec22b” value ([2]; competitor 25 μM) was 1.4 and the “SILAC ratio Gba” value ([3]; competitor 25 μM) was 2.4. For the same compound, the “SILAC ratio Idh2” value ([4]; competitor 25 μM) was 1.3, the “SILAC ratio, Cyp20a1” value ([8]; competitor 25 μM) was 1.4 and the “SILAC ratio, Tusc3” value ([5]; competitor 25 μM) was 1.6. For the same compound, the “SILAC ratio Tmx4” value ([6]; competitor 25 μM) was 1.4 and the “SILAC ratio Cisd1” value ([7]; competitor 25 μM) was 1.6.
`CN1CCN(C(=O)c2[nH]c3ccc([N+](=O)[O-])cc3c2-c2ccccc2)CC1` [MJN228, (4-Methylpiperazin-1-yl)(5-nitro-3-phenyl-1H-indol-2-yl)methanone] was tested, and the “SILAC ratio, Tmed7” value ([1]; competitor 10 μM) was 1.0, the “SILAC ratio, Tmed7” value ([1]; competitor 25 μM) was 1.5 and the “SILAC ratio, Tmed7” value ([1]; competitor 100 μM) was 2.1. For the same compound, the “SILAC ratio, Sec22b” value ([2]; competitor 10 μM) was 1.5, the “SILAC ratio, Sec22b” value ([2]; competitor 25 μM) was 1.6 and the “SILAC ratio, Sec22b” value ([2]; competitor 50 μM) was 2.0. The “SILAC ratio, Sec22b” value ([2]; competitor 100 μM) was 2.0, the “SILAC ratio Gba” value ([3]; competitor 10 μM) was 2.2 and the “SILAC ratio Idh2” value ([4]; competitor 10 μM) was 1.3. The “SILAC ratio Idh2” value ([4]; competitor 25 μM) was 1.4, the “SILAC ratio Idh2” value ([4]; competitor 50 μM) was 1.6 and the “SILAC ratio Idh2” value ([4]; competitor 100 μM) was 1.6. The “SILAC ratio, Cyp20a1” value ([8]; competitor 10 μM) was 1.2, the “SILAC ratio, Cyp20a1” value ([8]; competitor 25 μM) was 1.3 and the “SILAC ratio, Cyp20a1” value ([8]; competitor 50 μM) was 1.2. For the same compound, the “SILAC ratio, Cyp20a1” value ([8]; competitor 100 μM) was 1.6, the “SILAC ratio, Tusc3” value ([5]; competitor 10 μM) was 1.2 and the “SILAC ratio, Tusc3” value ([5]; competitor 25 μM) was 1.6. For the same compound, the “SILAC ratio, Tusc3” value ([5]; competitor 50 μM) was 1.6, the “SILAC ratio, Tusc3” value ([5]; competitor 100 μM) was 2.6 and the “SILAC ratio Tmx4” value ([6]; competitor 10 μM) was 1.0. For the same compound, the “SILAC ratio Tmx4” value ([6]; competitor 25 μM) was 1.3, the “SILAC ratio Tmx4” value ([6]; competitor 50 μM) was 1.3 and the “SILAC ratio Tmx4” value ([6]; competitor 100 μM) was 1.6. The “SILAC ratio Cisd1” value ([7]; competitor 10 μM) was 1.3, the “SILAC ratio Cisd1” value ([7]; competitor 25 μM) was 1.5 and the “SILAC ratio Cisd1” value ([7]; competitor 50 μM) was 1.4. The “SILAC ratio Cisd1” value ([7]; competitor 100 μM) was 2.4.
`C=CCN(C)CCCCCCOc1ccc(C(=O)c2ccc(Br)cc2)c(F)c1` [Ro 48-8071, reference compound] was tested, and the “SILAC ratio, Tmed7” value ([1]; competitor 25 μM) was 1.1, the “SILAC ratio, Sec22b” value ([2]; competitor 25 μM) was 1.1 and the “SILAC ratio Gba” value ([3]; competitor 25 μM) was 0.7. The “SILAC ratio Idh2” value ([4]; competitor 25 μM) was 0.9, the “SILAC ratio, Cyp20a1” value ([8]; competitor 25 μM) was 1.1 and the “SILAC ratio, Tusc3” value ([5]; competitor 25 μM) was 1.2. For the same compound, the “SILAC ratio Tmx4” value ([6]; competitor 25 μM) was 1.2 and the “SILAC ratio Cisd1” value ([7]; competitor 25 μM) was 1.1.
